Measured values published in US10004701B2, “Methods and compositions for treating infection” (UNIVERSITY OF ROCHESTER, priority 2012, dated 2018).
Structures can show the parent of a compound that is named as a salt. Where two headings read alike, the source gives them in different places.

Tests used:
Test in all cases: AK assay 384-well format, Prestwick library screening
E. coli = assay type: cell-based, Escherichia coli; conditions: Escherichia coli, 3 h
E. cloacae = assay type: cell-based, Enterobacter cloacae; conditions: Enterobacter cloacae, 3 h
[1] = system: S. aureus strain USA300-0114; assay type: cell-based, Staphylococcus aureus; conditions: Staphylococcus aureus, USA300, 3 h
K. pneumoniae = assay type: cell-based, Klebsiella pneumoniae; conditions: Klebsiella pneumoniae, 3 h
P. aeruginosa = assay type: cell-based, Pseudomonas aeruginosa; conditions: Pseudomonas aeruginosa, 3 h
[2] = system: A. baumannii strain 98-37-09; assay type: cell-based, Acinetobacter baumannii; conditions: Acinetobacter baumannii, 983709, 3 h
E. faecium = assay type: cell-based, Enterococcus faecium; conditions: Enterococcus faecium, 3 h
[3] = planktonic E. coli, 50 μM final drug concentration, 384-well, cutoff for positive-scoring molecules 3-fold increase, read-out: AK-based Prestwick Library Screening Results: E. coli (increase in extracellular AK activity)
[4] = planktonic E. cloacae, 50 μM final drug concentration, 384-well, cutoff for positive-scoring molecules 3-fold increase, read-out: AK-based Prestwick Library Screening Results: E. cloacae (increase in extracellular AK activity)
[5] = planktonic S. aureus, 50 μM final drug concentration, 384-well, cutoff for positive-scoring molecules 3-fold increase, read-out: AK-based Prestwick Library Screening Results: S. aureus (increase in extracellular AK activity)
[6] = planktonic K. pneumoniae, 50 μM final drug concentration, 384-well, cutoff for positive-scoring molecules 3-fold increase, read-out: AK-based Prestwick Library Screening Results: K. pneumoniae (increase in extracellular AK activity)
[7] = planktonic P. aeruginosa, 50 μM final drug concentration, 384-well, cutoff for positive-scoring molecules 3-fold increase, read-out: AK-based Prestwick Library Screening Results: P. aeruginosa (increase in extracellular AK activity)
[8] = planktonic A. baumannii, 50 μM final drug concentration, 384-well, cutoff for positive-scoring molecules 3-fold increase, read-out: AK-based Prestwick Library Screening Results: A. baumannii (increase in extracellular AK activity)
[9] = planktonic E. faecium, 50 μM final drug concentration, 384-well, cutoff for positive-scoring molecules 3-fold increase, read-out: AK-based Prestwick Library Screening Results: E. faecium (increase in extracellular AK activity)

CC(C)(Oc1ccc(C2CC2(Cl)Cl)cc1)C(=O)O (centres unmarked) [Ciprofibrate]
fold induction at 50 µM (E. coli; planktonic E. coli, 50 μM final drug concentration, positive cutoff 3-fold increase, read-out: AK-based Prestwick library screening result, E. coli (fold increase in extracellular AK activity)): 0.8
fold induction at 50 µM (E. cloacae; planktonic E. cloacae, 50 μM final drug concentration, positive cutoff 3-fold increase, read-out: AK-based Prestwick library screening result, E. cloacae (fold increase in extracellular AK activity)): 1.2
fold induction at 50 µM ([1]; planktonic S. aureus, 50 μM final drug concentration, positive cutoff 3-fold increase, read-out: AK-based Prestwick library screening result, S. aureus (fold increase in extracellular AK activity)): 0.7
fold induction at 50 µM (K. pneumoniae; planktonic K. pneumoniae, 50 μM final drug concentration, positive cutoff 3-fold increase, read-out: AK-based Prestwick library screening result, K. pneumoniae (fold increase in extracellular AK activity)): 0.8
fold induction at 50 µM (P. aeruginosa; planktonic P. aeruginosa, 50 μM final drug concentration, positive cutoff 3-fold increase, read-out: AK-based Prestwick library screening result, P. aeruginosa (fold increase in extracellular AK activity)): 0.7
fold induction at 50 µM ([2]; planktonic A. baumannii, 50 μM final drug concentration, positive cutoff 3-fold increase, read-out: AK-based Prestwick library screening result, A. baumannii (fold increase in extracellular AK activity)): 0.8
fold induction at 50 µM (E. faecium; planktonic E. faecium, 50 μM final drug concentration, positive cutoff 3-fold increase, read-out: AK-based Prestwick library screening result, E. faecium (fold increase in extracellular AK activity)): 0.9

COc1cc(N)c(Cl)cc1C(=O)NC1CCN(CCCOc2ccc(F)cc2)CC1OC (centres unmarked) [Cisapride]
fold induction at 50 µM (E. coli; planktonic E. coli, 50 μM final drug concentration, cutoff for positive-scoring molecules 3-fold increase, read-out: AK-based Prestwick Library Screening Results, E. coli (increase in extracellular AK activity)): 0.9
fold induction at 50 µM (E. cloacae; planktonic E. cloacae, 50 μM final drug concentration, cutoff for positive-scoring molecules 3-fold increase, read-out: AK-based Prestwick Library Screening Results, E. cloacae (increase in extracellular AK activity)): 0.9
fold induction at 50 µM ([1]; planktonic S. aureus, 50 μM final drug concentration, cutoff for positive-scoring molecules 3-fold increase, read-out: AK-based Prestwick Library Screening Results, S. aureus (increase in extracellular AK activity)): 0.6
fold induction at 50 µM (K. pneumoniae; planktonic K. pneumoniae, 50 μM final drug concentration, cutoff for positive-scoring molecules 3-fold increase, read-out: AK-based Prestwick Library Screening Results, K. pneumoniae (increase in extracellular AK activity)): 0.7
fold induction at 50 µM (P. aeruginosa; planktonic P. aeruginosa, 50 μM final drug concentration, cutoff for positive-scoring molecules 3-fold increase, read-out: AK-based Prestwick Library Screening Results, P. aeruginosa (increase in extracellular AK activity)): 0.9
fold induction at 50 µM ([2]; planktonic A. baumannii, 50 μM final drug concentration, cutoff for positive-scoring molecules 3-fold increase, read-out: AK-based Prestwick Library Screening Results, A. baumannii (increase in extracellular AK activity)): 1.1
fold induction at 50 µM (E. faecium; planktonic E. faecium, 50 μM final drug concentration, cutoff for positive-scoring molecules 3-fold increase, read-out: AK-based Prestwick Library Screening Results, E. faecium (increase in extracellular AK activity)): 0.9

CN(C)CCCC1(c2ccc(F)cc2)OCc2cc(C#N)ccc21 (centres unmarked) [Citalopram Hydrobromide]
fold induction at 50 µM (E. coli; 50 μM final drug concentration, cutoff for positive-scoring molecules 3-fold increase, read-out: AK-based Prestwick Library Screening Results, E. coli (fold increase in extracellular AK activity)): 1
fold induction at 50 µM (E. cloacae; 50 μM final drug concentration, cutoff for positive-scoring molecules 3-fold increase, read-out: AK-based Prestwick Library Screening Results, E. cloacae (fold increase in extracellular AK activity)): 1.5
fold induction at 50 µM ([1]; 50 μM final drug concentration, cutoff for positive-scoring molecules 3-fold increase, read-out: AK-based Prestwick Library Screening Results, S. aureus (fold increase in extracellular AK activity)): 1
fold induction at 50 µM (K. pneumoniae; 50 μM final drug concentration, cutoff for positive-scoring molecules 3-fold increase, read-out: AK-based Prestwick Library Screening Results, K. pneumoniae (fold increase in extracellular AK activity)): 0.9
fold induction at 50 µM (P. aeruginosa; 50 μM final drug concentration, cutoff for positive-scoring molecules 3-fold increase, read-out: AK-based Prestwick Library Screening Results, P. aeruginosa (fold increase in extracellular AK activity)): 1.2
fold induction at 50 µM ([2]; 50 μM final drug concentration, cutoff for positive-scoring molecules 3-fold increase, read-out: AK-based Prestwick Library Screening Results, A. baumannii (fold increase in extracellular AK activity)): 0.9
fold induction at 50 µM (E. faecium; 50 μM final drug concentration, cutoff for positive-scoring molecules 3-fold increase, read-out: AK-based Prestwick Library Screening Results, E. faecium (fold increase in extracellular AK activity)): 1

COc1cc(N)c(Cl)cc1C(=O)NC1CCN(Cc2ccccc2)CC1 [Clebopride maleate]
fold induction at 50 µM (E. coli; 50 μM final drug concentration, planktonic, cutoff for positive 3-fold increase, read-out: AK-based Prestwick Library Screening Results, E. coli (fold increase in extracellular AK activity)): 1
fold induction at 50 µM (E. cloacae; 50 μM final drug concentration, planktonic, cutoff for positive 3-fold increase, read-out: AK-based Prestwick Library Screening Results, E. cloacae (fold increase in extracellular AK activity)): 1.6
fold induction at 50 µM ([1]; 50 μM final drug concentration, planktonic, cutoff for positive 3-fold increase, read-out: AK-based Prestwick Library Screening Results, S. aureus (fold increase in extracellular AK activity)): 1.2
fold induction at 50 µM (K. pneumoniae; 50 μM final drug concentration, planktonic, cutoff for positive 3-fold increase, read-out: AK-based Prestwick Library Screening Results, K. pneumoniae (fold increase in extracellular AK activity)): 1
fold induction at 50 µM (P. aeruginosa; 50 μM final drug concentration, planktonic, cutoff for positive 3-fold increase, read-out: AK-based Prestwick Library Screening Results, P. aeruginosa (fold increase in extracellular AK activity)): 0.9
fold induction at 50 µM ([2]; 50 μM final drug concentration, planktonic, cutoff for positive 3-fold increase, read-out: AK-based Prestwick Library Screening Results, A. baumannii (fold increase in extracellular AK activity)): 1
fold induction at 50 µM (E. faecium; 50 μM final drug concentration, planktonic, cutoff for positive 3-fold increase, read-out: AK-based Prestwick Library Screening Results, E. faecium (fold increase in extracellular AK activity)): 1.1

Clc1ccc(Cn2c(CN3CCCC3)nc3ccccc32)cc1 [Clemizole hydrochloride]
fold induction at 50 µM (E. coli; [3]): 1.2
fold induction at 50 µM (E. cloacae; [4]): 1.4
fold induction at 50 µM [1, 5]: 1.6
fold induction at 50 µM (K. pneumoniae; [6]): 1
fold induction at 50 µM (P. aeruginosa; [7]): 1.2
fold induction at 50 µM [2, 8]: 1.6
fold induction at 50 µM (E. faecium; [9]): 1.2

CC(C)(C)NCC(O)c1cc(Cl)c(N)c(Cl)c1 (centres unmarked) [Clenbuterol hydrochloride]
fold induction at 50 µM (E. coli; planktonic E. coli, 50 μM final drug concentration, […], read-out: AK-based Prestwick Library Screening Results, E. coli (increase in extracellular AK activity)): 0.8
fold induction at 50 µM (E. cloacae; planktonic E. cloacae, 50 μM final drug concentration, […], read-out: AK-based Prestwick Library Screening Results, E. cloacae (increase in extracellular AK activity)): 0.9
fold induction at 50 µM ([1]; planktonic S. aureus, 50 μM final drug concentration, […], read-out: AK-based Prestwick Library Screening Results, S. aureus (increase in extracellular AK activity)): 0.7
fold induction at 50 µM (K. pneumoniae; planktonic K. pneumoniae, 50 μM final drug concentration, […], read-out: AK-based Prestwick Library Screening Results, K. pneumoniae (increase in extracellular AK activity)): 0.7
fold induction at 50 µM (P. aeruginosa; planktonic P. aeruginosa, 50 μM final drug concentration, […], read-out: AK-based Prestwick Library Screening Results, P. aeruginosa (increase in extracellular AK activity)): 0.8
fold induction at 50 µM ([2]; planktonic A. baumannii, 50 μM final drug concentration, […], read-out: AK-based Prestwick Library Screening Results, A. baumannii (increase in extracellular AK activity)): 0.8
fold induction at 50 µM (E. faecium; planktonic E. faecium, 50 μM final drug concentration, […], read-out: AK-based Prestwick Library Screening Results, E. faecium (increase in extracellular AK activity)): 0.9

C[N+]12CCC(CC1)C(OC(=O)C(O)(c1ccccc1)c1ccccc1)C2 (centres unmarked) [Clidinium bromide]
fold induction at 50 µM (E. coli; read-out: AK-based Prestwick Library Screening Results, E. coli (fold increase in extracellular AK activity)): 1
fold induction at 50 µM (E. cloacae; read-out: AK-based Prestwick Library Screening Results, E. cloacae (fold increase in extracellular AK activity)): 1.3
fold induction at 50 µM ([1]; read-out: AK-based Prestwick Library Screening Results, S. aureus (fold increase in extracellular AK activity)): 0.9
fold induction at 50 µM (K. pneumoniae; read-out: AK-based Prestwick Library Screening Results, K. pneumoniae (fold increase in extracellular AK activity)): 0.8
fold induction at 50 µM (P. aeruginosa; read-out: AK-based Prestwick Library Screening Results, P. aeruginosa (fold increase in extracellular AK activity)): 1.1
fold induction at 50 µM ([2]; read-out: AK-based Prestwick Library Screening Results, A. baumannii (fold increase in extracellular AK activity)): 1.1
fold induction at 50 µM (E. faecium; read-out: AK-based Prestwick Library Screening Results, E. faecium (fold increase in extracellular AK activity)): 0.9

CCC[C@@H]1C[C@@H](C(=O)N[C@@H]([C@H]2O[C@H](SC)[C@H](O)[C@@H](O)[C@H]2O)[C@H](C)Cl)N(C)C1 [Clindamycin hydrochloride]
fold induction at 50 µM (E. coli; [3]): 0.8
fold induction at 50 µM (E. cloacae; [4]): 1.7
fold induction at 50 µM [1, 5]: 8.4
fold induction at 50 µM (K. pneumoniae; [6]): 0.5
fold induction at 50 µM (P. aeruginosa; [7]): 1.1
fold induction at 50 µM [2, 8]: 1
fold induction at 50 µM (E. faecium; [9]): 1.2
